{"source": "paper PMC9820316", "about": "“Novel Arylpiperazine Derivatives of Salicylamide with α1-Adrenolytic Properties Showed Antiarrhythmic and Hypotensive Properties in Rats” (International Journal of Molecular Sciences, 2022)", "key": {"[1]": {"target": "α2-adrenergic receptors", "test": "α2-adrenoceptor radioligand binding assay ([3H]-clonidine, rat cortex)", "details": "rat cortex tissue, mean ± SEM, n.a. = did not bind at 10^−5 M", "how_it_was_run": "(§1)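 Rat cerebral cortex membranes in 50 mM Tris-HCl pH 7.6, with 7–8 compound concentrations in duplicate. Nonspecific binding defined by 10 μM phentolamine for [3H]-prazosin (α1) or 10 μM clonidine for [3H]-clonidine (α2). Filtration and scintillation counting; Ki calculated.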"}, "[2]": {"system": "adrenaline-induced arrhythmia model in rats", "test": "Prophylactic antiarrhythmic activity in adrenaline-induced arrhythmia", "assay_type": "in vivo, rat", "details": "for Blocks / Bradycardia / Extrasystoles / Mortality: number of animals with event"}, "[3]": {"system": "normotensive rats", "test": "Influence on blood pressure in the normotensive rats", "assay_type": "in vivo, rat", "details": "for DBP—diastolic blood pressure / SBP—systolic blood pressure: mean ± SD", "how_it_was_run": "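Anaesthetised (thiopental 75 mg/kg ip) normotensive Wistar rats with right carotid artery cannulated for direct pressure recording. Compounds given iv after 15 min stabilisation. Systolic and diastolic blood pressure were monitored.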"}, "[4]": {"system": "calcium chloride-induced arrhythmia model in rats", "test": "Prophylactic antiarrhythmic activity in calcium chloride-induced arrhythmia", "assay_type": "in vivo, rat", "details": "5 mg/kg iv 15 min before calcium chloride 140 mg/kg; number of animals with event"}, "[5]": {"system": "pressor response to methoxamine in rats", "test": "Influence on blood vasopressor response to methoxamine in rats", "assay_type": "in vivo, rat", "details": "1 mg/kg iv, methoxamine 150 μg/kg before and 5 min after compound", "how_it_was_run": "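Anaesthetised (thiopental 75 mg/kg ip) normotensive Wistar rats, carotid artery cannulated. Pressor response to methoxamine (150 µg/kg, iv) recorded before and 5 min after test compound, given at its lowest hypotensive dose, after 15-min stabilisation.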"}, "[6]": {"system": "aconitine-induced arrhythmia model in rats", "test": "Prophylactic antiarrhythmic activity in aconitine-induced arrhythmia", "assay_type": "in vivo, rat", "details": "5 mg/kg iv 15 min before aconitine 20 μg/kg; number of animals with event"}, "[7]": {"system": "adrenaline-induced arrhythmia model in rats", "test": "Therapeutic antiarrhythmic activity in adrenaline-induced arrhythmia", "details": "1 mg/kg iv immediately after adrenaline 20 µg/kg; number of animals with event"}, "[8]": {"target": "α1-adrenergic receptors", "test": "α1-adrenoceptor radioligand binding assay ([3H]-prazosin, rat cortex)", "details": "rat cortex tissue, mean ± SEM", "how_it_was_run": "as §1"}, "[9]": {"details": "0.05 mg/kg iv 15 min before adrenaline 20 μg/kg"}, "[10]": {"details": "0.1 mg/kg iv 15 min before adrenaline 20 μg/kg"}, "[11]": {"details": "0.25 mg/kg iv 15 min before adrenaline 20 μg/kg"}, "[12]": {"details": "0.5 mg/kg iv, 0 min (before administration)"}, "[13]": {"details": "1.0 mg/kg iv, 0 min (before administration)"}}, "note": "Marks after values point to notes of the source that are not given here.", "data": [{"smiles": "Cl.NC(=O)c1ccccc1OCCCCN1CCN(c2cccc(Cl)c2)CC1", "note": "[JJGW01, 2-{4-[4-(3-chlorophenyl)piperazin-1-ylo]butoxy}benzamide hydrochloride]", "values": [{"measurement": "Adrenergic Receptors—pKi α2", "setting": "[1]", "result": "6.13 ± 0.02"}, {"measurement": "Blocks", "setting": "[2]; [9]", "result": "6/6"}, {"measurement": "Bradycardia", "setting": "[2]; [9]", "result": "6/6"}, {"measurement": "Extrasystoles", "setting": "[2]; [9]", "result": "6/6"}, {"measurement": "Mortality", "setting": "[2]; [9]", "result": "4/6"}, {"measurement": "Blocks", "setting": "[2]; [10]", "result": "5/6"}, {"measurement": "Bradycardia", "setting": "[2]; [10]", "result": "3/6"}, {"measurement": "Extrasystoles", "setting": "[2]; [10]", "result": "5/6"}, {"measurement": "Mortality", "setting": "[2]; [10]", "result": "0/6"}, {"measurement": "Blocks", "setting": "[2]; [11]", "result": "4/6"}, {"measurement": "Bradycardia", "setting": "[2]; [11]", "result": "2/6"}, {"measurement": "Extrasystoles", "setting": "[2]; [11]", "result": "4/6"}, {"measurement": "Mortality", "setting": "[2]; [11]", "result": "1/6"}, {"measurement": "ED50", "setting": "[2]; prophylactic, iv 15 min before adrenaline 20 μg/kg, confidence limits in brackets (Litchfield and Wilcoxon)", "result": "0.10 (0.03–0.36) mg/kg"}, {"measurement": "DBP—diastolic blood pressure", "setting": "[3]; [12]", "result": "95.3 ± 12.6", "unit": "mmHg"}, {"measurement": "SBP—systolic blood pressure", "setting": "[3]; [12]", "result": "130.7 ± 14.9", "unit": "mmHg"}, {"measurement": "DBP—diastolic blood pressure", "setting": "[3]; 0.5 mg/kg iv, 5 min", "result": "88.5 ± 14.3", "unit": "mmHg"}, {"measurement": "SBP—systolic blood pressure", "setting": "[3]; 0.5 mg/kg iv, 5 min", "result": "119.0 ± 13.4", "unit": "mmHg"}, {"measurement": "DBP—diastolic blood pressure", "setting": "[3]; 0.5 mg/kg iv, 10 min", "result": "85.0 ± 13.6", "unit": "mmHg"}, {"measurement": "SBP—systolic blood pressure", "setting": "[3]; 0.5 mg/kg iv, 10 min", "result": "115.7 ± 13.0", "unit": "mmHg"}, {"measurement": "DBP—diastolic blood pressure", "setting": "[3]; 0.5 mg/kg iv, 20 min", "result": "84.8 ± 8.5", "unit": "mmHg"}, {"measurement": "SBP—systolic blood pressure", "setting": "[3]; 0.5 mg/kg iv, 20 min", "result": "114.7 ± 8.8", "unit": "mmHg"}, {"measurement": "DBP—diastolic blood pressure", "setting": "[3]; 0.5 mg/kg iv, 30 min", "result": "84.3 ± 6.9", "unit": "mmHg"}, {"measurement": "SBP—systolic blood pressure", "setting": "[3]; 0.5 mg/kg iv, 30 min", "result": "114.5 ± 10.2", "unit": "mmHg"}, {"measurement": "DBP—diastolic blood pressure", "setting": "[3]; 0.5 mg/kg iv, 40 min", "result": "86.0 ± 10.3", "unit": "mmHg"}, {"measurement": "SBP—systolic blood pressure", "setting": "[3]; 0.5 mg/kg iv, 40 min", "result": "115.2 ± 12.6", "unit": "mmHg"}, {"measurement": "DBP—diastolic blood pressure", "setting": "[3]; 0.5 mg/kg iv, 50 min", "result": "88.3 ± 15.3", "unit": "mmHg"}, {"measurement": "SBP—systolic blood pressure", "setting": "[3]; 0.5 mg/kg iv, 50 min", "result": "116.8 ± 17.3", "unit": "mmHg"}, {"measurement": "DBP—diastolic blood pressure", "setting": "[3]; 0.5 mg/kg iv, 60 min", "result": "86.8 ± 15.5", "unit": "mmHg"}, {"measurement": "SBP—systolic blood pressure", "setting": "[3]; 0.5 mg/kg iv, 60 min", "result": "113.8 ± 16.1", "unit": "mmHg"}, {"measurement": "DBP—diastolic blood pressure", "setting": "[3]; [13]", "result": "87.7 ± 11.2", "unit": "mmHg"}, {"measurement": "SBP—systolic blood pressure", "setting": "[3]; [13]", "result": "112.5 ± 11.6", "unit": "mmHg"}, {"measurement": "decrease of the diastolic blood pressure", "setting": "[3]; 1 mg/kg iv, 40th min after administration", "result": 16, "unit": "%"}, {"measurement": "decrease of the diastolic blood pressure", "setting": "[3]; 1 mg/kg iv, 60th min after administration", "result": 17, "unit": "%"}, {"measurement": "DBP—diastolic blood pressure", "setting": "[3]; 1.0 mg/kg iv, 5 min", "result": "80.2 ± 10.8", "unit": "mmHg"}, {"measurement": "SBP—systolic blood pressure", "setting": "[3]; 1.0 mg/kg iv, 5 min", "result": "102.5 ± 9.5 ^d mmHg"}, {"measurement": "DBP—diastolic blood pressure", "setting": "[3]; 1.0 mg/kg iv, 10 min", "result": "79.0 ± 11.9", "unit": "mmHg"}, {"measurement": "SBP—systolic blood pressure", "setting": "[3]; 1.0 mg/kg iv, 10 min", "result": "100.3 ± 10.4 ^d mmHg"}, {"measurement": "DBP—diastolic blood pressure", "setting": "[3]; 1.0 mg/kg iv, 20 min", "result": "77.5 ± 12.1", "unit": "mmHg"}, {"measurement": "SBP—systolic blood pressure", "setting": "[3]; 1.0 mg/kg iv, 20 min", "result": "99.7 ± 11.3 ^c mmHg"}, {"measurement": "DBP—diastolic blood pressure", "setting": "[3]; 1.0 mg/kg iv, 30 min", "result": "75.7 ± 10.6", "unit": "mmHg"}, {"measurement": "SBP—systolic blood pressure", "setting": "[3]; 1.0 mg/kg iv, 30 min", "result": "98.2 ± 10.4 ^c mmHg"}, {"measurement": "DBP—diastolic blood pressure", "setting": "[3]; 1.0 mg/kg iv, 40 min", "result": "73.8 ± 14.0 ^a mmHg"}, {"measurement": "SBP—systolic blood pressure", "setting": "[3]; 1.0 mg/kg iv, 40 min", "result": "95.7 ± 13.3 ^c mmHg"}, {"measurement": "DBP—diastolic blood pressure", "setting": "[3]; 1.0 mg/kg iv, 50 min", "result": "72.7 ± 11.6", "unit": "mmHg"}, {"measurement": "SBP—systolic blood pressure", "setting": "[3]; 1.0 mg/kg iv, 50 min", "result": "95.5 ± 11.2 ^d mmHg"}, {"measurement": "DBP—diastolic blood pressure", "setting": "[3]; 1.0 mg/kg iv, 60 min", "result": "73.2 ± 11.3 ^a mmHg"}, {"measurement": "SBP—systolic blood pressure", "setting": "[3]; 1.0 mg/kg iv, 60 min", "result": "96.5 ± 10.6 ^c mmHg"}, {"measurement": "decrease of the systolic blood pressure", "setting": "[3]; 1 mg/kg iv, between the 5th and 60th min after the injection", "result": "9–15%"}, {"measurement": "Blocks", "setting": "[4]", "result": "6/6"}, {"measurement": "Bradycardia", "setting": "[4]", "result": "6/6"}, {"measurement": "Extrasystoles", "setting": "[4]", "result": "6/6"}, {"measurement": "Fibrillations", "setting": "[4]", "result": "6/6"}, {"measurement": "Mortality", "setting": "[4]", "result": "6/6"}, {"measurement": "attenuation of the methoxamine pressor response", "setting": "[5]", "result": 81, "unit": "%"}, {"measurement": "Blocks", "setting": "[6]", "result": "6/6"}, {"measurement": "Bradycardia", "setting": "[6]", "result": "6/6"}, {"measurement": "Extrasystoles", "setting": "[6]", "result": "5/6"}, {"measurement": "Fibrillations", "setting": "[6]", "result": "6/6"}, {"measurement": "Mortality", "setting": "[6]", "result": "6/6"}, {"measurement": "Blocks", "setting": "[7]", "result": "3/5"}, {"measurement": "Bradycardia", "setting": "[7]", "result": "2/5"}, {"measurement": "Mortality", "setting": "[7]", "result": "0/5"}, {"measurement": "Adrenergic Receptors—pKi α1", "setting": "[8]", "result": "8.40 ± 0.01"}]}]}
